Experimental data taken from patent publication US20110053916A1 (Vertex Pharmaceuticals Incorporated, priority 2009, published 2011).

These molecules were tested against T1, PknB (Mycobacterium tuberculosis, UniProt P9WI81) (assay: biochemical). Details: 3 nM PknB, 6 uM GarA, 3 μM ATP, 30 min; competitive tight-binding fit; several symbols in a cell = repeat determinations.
T1 construct: made in house
Set-up: species or system M. tuberculosis

T1 sequence (P9WI81 whole entry): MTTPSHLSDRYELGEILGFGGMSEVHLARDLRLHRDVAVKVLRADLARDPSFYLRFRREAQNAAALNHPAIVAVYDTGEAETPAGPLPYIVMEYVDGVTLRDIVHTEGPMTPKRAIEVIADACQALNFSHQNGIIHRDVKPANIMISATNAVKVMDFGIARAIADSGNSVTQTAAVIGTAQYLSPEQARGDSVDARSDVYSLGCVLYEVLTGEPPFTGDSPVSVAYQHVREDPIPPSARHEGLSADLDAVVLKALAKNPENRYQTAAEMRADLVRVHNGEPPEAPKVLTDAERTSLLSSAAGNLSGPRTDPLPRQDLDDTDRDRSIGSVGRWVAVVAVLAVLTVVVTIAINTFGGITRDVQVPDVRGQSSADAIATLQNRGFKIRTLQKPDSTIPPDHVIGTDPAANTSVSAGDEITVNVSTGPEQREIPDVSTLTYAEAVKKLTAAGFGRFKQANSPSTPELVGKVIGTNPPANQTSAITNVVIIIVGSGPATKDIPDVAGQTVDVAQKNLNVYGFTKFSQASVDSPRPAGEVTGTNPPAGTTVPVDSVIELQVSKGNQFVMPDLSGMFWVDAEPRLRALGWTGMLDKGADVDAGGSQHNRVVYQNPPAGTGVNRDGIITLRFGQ

In the case of `CC(=O)c1ccc(-c2ncc(Br)c(Nc3cc(C4CC4)[nH]n3)n2)s1` [Compound 165, 1-[5-[5-bromo-4-[(5-cyclopropyl-1H-pyrazol-3-yl)amino]-pyrimidin-2-yl]-2-thienyl]ethanone], the “Ki Values” is reported as “A**, A*”.
In the case of `C#Cc1cnc(-c2ccc(CNC(=O)OC(C)(C)C)s2)nc1Nc1cc(C2CC2)[nH]n1` [Compound 168, Tert-butyl (5-(4-(5-cyclopropyl-1H-pyrazol-3-ylamino)-5-ethynylpyrimidin-2-yl)thiophen-2-yl)methylcarbamate], the “Ki Values” is reported as “B**, B**, B”.
With `C#Cc1cnc(N2CC[C@H](NC(=O)OC(C)(C)C)C2)nc1Nc1cc(C2CC2)n[nH]1` [Compound 169, tert-butyl [[1-[4-[(5-cyclopropyl-2H-pyrazol-3-yl)amino]-5-ethynyl-pyrimidin-2-yl]pyrrolidin-3-yl]amino]formate] the “Ki Values” was “C, D”.
With `C#Cc1cnc(N2CCCCC2)nc1Nc1cc(C2CC2)n[nH]1` [Compound 172, N-(5-Cyclopropyl-1H-pyrazol-3-yl)-5-ethynyl-2-(piperidin-1-yl)pyrimidin-4-amine] the “Ki Values” was “A, B**, B**”.
In the case of `C#Cc1cnc(N2CC[C@@H](NC(C)=O)C2)nc1Nc1cc(C2CC2)n[nH]1` [Compound 193, N-[1-[4-[(5-cyclopropyl-2H-pyrazol-3-yl)amino]-5-ethynyl-pyrimidin-2-yl]pyrrolidin-3-yl]acetamide], the “Ki Values” is reported as “B, C”.
With `CC(=O)NS(=O)(=O)c1ccc(-c2ncc(Cl)c(Nc3cc(C4CC4)[nH]n3)n2)s1` [Compound 194, N-[[5-[5-chloro-4-[(5-cyclopropyl-1H-pyrazol-3-yl)amino]-pyrimidin-2-yl]-2-thienyl]sulfonyl]acetamide] the “Ki Values” was “A, B**”.
With `C#Cc1cnc(-c2ccc(S(=O)(=O)NC(=O)C(C)(C)C)s2)nc1Nc1cc(C2CC2)[nH]n1` [Compound 201, N-[[5-[4-[(5-cyclopropyl-1H-pyrazol-3-yl)amino]-5-ethynyl-pyrimidin-2-yl]-2-thienyl]sulfonyl]-2,2-dimethyl-propanamide] the “Ki Values” was “B*, B*, B”.
In the case of `C#Cc1cnc(-c2ccc(C(=O)NCCNC(C)=O)s2)nc1Nc1cc(C2CC2)n[nH]1` [Compound 206, N-(2-acetamidoethyl)-5-(4-(5-cyclopropyl-1H-pyrazol-3-ylamino)-5-ethynylpyrimidin-2-yl)thiophene-2-carboxamide], the “Ki Values” is reported as “B**, B**, B*”.
For `CC(O)c1cnc(-c2ccc(S(=O)(=O)NC(C)(C)C)s2)nc1Nc1cc(C2CC2)[nH]n1` (stereo not shown) [Compound 208, 5-[4-[(5-cyclopropyl-1H-pyrazol-3-yl)amino]-5-(1-hydroxyethyl)pyrimidin-2-yl]-N-tert-butyl-thiophene-2-sulfonamide], the “Ki Values” was “B**, B**, B*, B”.
In the case of `NS(=O)(=O)c1ccc(-c2ncc(C#CCO)c(Nc3cc(C4CC4)[nH]n3)n2)s1` [Compound 217, 5-(4-(5-Cyclopropyl-1H-pyrazol-3-ylamino)-5-(3-hydroxyprop-1-ynyl)pyrimidin-2-yl)thiophene-2-sulfonamide], the “Ki Values” is reported as “A**, A*”.

Same assay, conditions: 3 nM PknB, 6 uM GarA, 3 μM ATP, 30 min; competitive tight-binding fit; several symbols in a cell = repeat determinations; read-out: Ki Values

First: CC(C)(C)NS(=O)(=O)c1ccc(-c2ncc(CO)c(Nc3cc(C4CC4)[nH]n3)n2)s1 [Compound 163, N-tert-butyl-5-(4-(5-cyclopropyl-1H-pyrazol-3-ylamino)-5-(hydroxymethyl)pyrimidin-2-yl)thiophene-2-sulfonamide]
Second: CC(C)(C)NS(=O)(=O)c1ccc(-c2ncc(/C=C/CO)c(Nc3cc(C4CC4)[nH]n3)n2)s1 [Compound 218, (E)-N-tert-butyl-5-(4-(5-cyclopropyl-1H-pyrazol-3-ylamino)-5-(3-hydroxyprop-1-enyl)pyrimidin-2-yl)thiophene-2-sulfonamide]
The Ki of the first is higher: 100 to 500 nM for the first, 50 to 100 nM for the second. The second binds more tightly here.

First: Clc1cnc(-c2ccco2)nc1Nc1cc(C2CC2)[nH]n1 [Compound 164, 5-chloro-N-(5-cyclopropyl-1H-pyrazol-3-yl)-2-(furan-2-yl)pyrimidin-4-amine]
Second: Clc1cnc(-c2ccccn2)nc1Nc1cc(C2CC2)[nH]n1 [Compound 182, 5-chloro-N-(5-cyclopropyl-1H-pyrazol-3-yl)-2-(pyridin-2-yl)pyrimidin-4-amine]
The Ki of the first is lower: 100 to 500 nM for the first, 1000 to 2000 nM for the second.

`CC(=O)NCCNS(=O)(=O)c1ccc(-c2ncc(Br)c(Nc3cc(C4CC4)[nH]n3)n2)s1` [Compound 166, N-(2-(5-(5-bromo-4-(5-cyclopropyl-1H-pyrazol-3-ylamino)pyrimidin-2-yl)thiophene-2-sulfonamido)ethyl)acetamide] and `C#Cc1cnc(-c2ccc(S(=O)(=O)NCCNC(C)=O)s2)nc1Nc1cc(C2CC2)[nH]n1` [Compound 181, N-[2-[[5-[4-[(5-cyclopropyl-1H-pyrazol-3-yl)amino]-5-ethynyl-pyrimidin-2-yl]-2-thienyl]sulfonylamino]ethyl]acetamide] fall in the same range of Ki: 10 to 50 nM for the first, 10 to 50 nM for the second.

`C#Cc1cnc(N2CCCNCC2)nc1Nc1cc(C2CC2)n[nH]1` [Compound 174, N-(5-cyclopropyl-2H-pyrazol-3-yl)-2-(1,4-diazepan-1-yl)-5-ethynyl-pyrimidin-4-amine] and `C#Cc1cnc(N2CCNCC2)nc1Nc1cc(C2CC2)n[nH]1` [Compound 175] fall in the same range of Ki: 2000 to 4000 nM for the first, 2000 to 4000 nM for the second.

`N#Cc1ccc(-c2ncc(Br)c(Nc3cc(C4CC4)[nH]n3)n2)s1` [Compound 176, 5-[5-bromo-4-[(5-cyclopropyl-1H-pyrazol-3-yl)amino]-pyrimidin-2-yl]thiophene-2-carbonitrile] and `NS(=O)(=O)c1ccc(-c2ncc(Br)c(Nc3cc(C4CC4)[nH]n3)n2)s1` [Compound 186, 5-[5-bromo-4-[(5-cyclopropyl-1H-pyrazol-3-yl)amino]-pyrimidin-2-yl]thiophene-2-sulfonamide] fall in the same range of Ki: 1 to 10 nM for the first, 1 to 10 nM for the second.

Compared with `C#Cc1cnc(N2CCN(C)CC2)nc1Nc1cc(C2CC2)[nH]n1` [Compound 177, N-(5-cyclopropyl-1H-pyrazol-3-yl)-5-ethynyl-2-(4-methylpiperazin-1-yl)-pyrimidin-4-amine], `C#Cc1cnc(N2CCCC2)nc1Nc1cc(C2CC2)[nH]n1` [Compound 178, N-(5-cyclopropyl-1H-pyrazol-3-yl)-5-ethynyl-2-pyrrolidin-1-yl-pyrimidin-4-amine] is lower in Ki: 2000 to 4000 nM for the first, 100 to 500 nM for the second. The second binds more tightly here.

First: NS(=O)(=O)c1ccc(-c2ncc(C(=O)O)c(Nc3cc(C4CC4)[nH]n3)n2)s1 [Compound 179, 4-(5-cyclopropyl-1H-pyrazol-3-ylamino)-2-(5-sulfamoylthiophen-2-yl)pyrimidine-5-carboxylic acid]
Second: C=Cc1cnc(-c2ccc(S(N)(=O)=O)s2)nc1Nc1cc(C2CC2)[nH]n1 [Compound 209, 5-(4-(5-Cyclopropyl-1H-pyrazol-3-ylamino)-5-vinylpyrimidin-2-yl)thiophene-2-sulfonamide]
The Ki of the first is higher: 500 to 1000 nM for the first, 1 to 10 nM for the second.

First: C#Cc1cnc(-c2ccc(S(=O)(=O)NCCNC(=O)C(C)(C)C)s2)nc1Nc1cc(C2CC2)n[nH]1 [Compound 183, N-(2-(5-(4-(5-cyclopropyl-1H-pyrazol-3-ylamino)-5-ethynylpyrimidin-2-yl)thiophene-2-sulfonamido)ethyl)pivalamide]
Second: C#Cc1cnc(-c2ccc(CO)s2)nc1Nc1cc(C2CC2)[nH]n1 [Compound 196, (5-(4-(5-cyclopropyl-1H-pyrazol-3-ylamino)-5-ethynylpyrimidin-2-yl)thiophen-2-yl)methanol]
The Ki of the first is higher: 50 to 100 nM for the first, 10 to 50 nM for the second. The second binds more tightly here.

`C#Cc1cnc(N2CC[C@@H](N)C2)nc1Nc1cc(C2CC2)n[nH]1` [Compound 184, 2-(3-aminopyrrolidin-1-yl)-N-(5-cyclopropyl-2H-pyrazol-3-yl)-5-ethynyl-pyrimidin-4-amine] and `C#Cc1cnc(N2CC[C@H](N)C2)nc1Nc1cc(C2CC2)n[nH]1` [Compound 187, 2-(3-aminopyrrolidin-1-yl)-N-(5-cyclopropyl-2H-pyrazol-3-yl)-5-ethynyl-pyrimidin-4-amine] cannot be ordered by Ki: greater than 4000 nM for the first, greater than 4000 nM for the second.

Compared with `C#Cc1cnc(N2CCN(C(C)=O)CC2)nc1Nc1cc(C2CC2)n[nH]1` [Compound 185, 1-[4-[4-[(5-cyclopropyl-2H-pyrazol-3-yl)amino]-5-ethynyl-pyrimidin-2-yl]piperazin-1-yl]ethanone], `C#Cc1cnc(-c2ccc([C@H](O)CC)s2)nc1Nc1cc(C2CC2)[nH]n1` [Compound 213, 1-[5-[4-[(5-cyclopropyl-1H-pyrazol-3-yl)amino]-5-ethynyl-pyrimidin-2-yl]-2-thienyl]propan-1-ol] is lower in Ki: 500 to 1000 nM for the first, 1 to 10 nM for the second.

Compared with `CCOC(=O)C(=O)c1ccc(-c2ncc(Cl)c(Nc3cc(C4CC4)[nH]n3)n2)s1` [Compound 189, ethyl 2-(5-(5-chloro-4-(5-cyclopropyl-1H-pyrazol-3-ylamino)pyrimidin-2-yl)thiophen-2-yl)-2-oxoacetate], `C#Cc1cnc(-c2ccc(C(=O)C(=O)OCC)s2)nc1Nc1cc(C2CC2)[nH]n1` [Compound 202, ethyl 2-[5-[4-[(5-cyclopropyl-1H-pyrazol-3-yl)amino]-5-ethynyl-pyrimidin-2-yl]-2-thienyl]-2-oxo-acetate] is lower in Ki: 50 to 100 nM for the first, 10 to 50 nM for the second. The second binds more tightly here.

First: O=C(O)C(=O)c1ccc(-c2ncc(Cl)c(Nc3cc(C4CC4)[nH]n3)n2)s1 [Compound 190, 2-(5-(5-chloro-4-(5-cyclopropyl-1H-pyrazol-3-ylamino)pyrimidin-2-yl)thiophen-2-yl)-2-oxoacetic acid]
Second: O=C(O)C(O)c1ccc(-c2ncc(Cl)c(Nc3cc(C4CC4)[nH]n3)n2)s1 (stereo not shown) [Compound 219, 2-(5-(5-chloro-4-(5-cyclopropyl-1H-pyrazol-3-ylamino)pyrimidin-2-yl)thiophen-2-yl)-2-hydroxyacetic acid]
The Ki of the first is lower: 10 to 50 nM for the first, 100 to 500 nM for the second. The first binds more tightly here.

`C/C=C\c1cnc(-c2ccc(S(N)(=O)=O)s2)nc1Nc1cc(C2CC2)[nH]n1` [Compound 207, (Z)-5-(4-(5-cyclopropyl-1H-pyrazol-3-ylamino)-5-(prop-1-enyl)pyrimidin-2-yl)thiophene-2-sulfonamide] and `NS(=O)(=O)c1ccc(-c2ncc(Cl)c(Nc3cc[nH]n3)n2)s1` [Compound 221, 5-[5-chloro-4-(1H-pyrazol-3-ylamino)-pyrimidin-2-yl]thiophene-2-sulfonamide] fall in the same range of Ki: 1 to 10 nM for the first, 1 to 10 nM for the second.

For `NS(=O)(=O)c1ccc(-c2ncc(Cl)c(Nc3cc(-c4cccs4)[nH]n3)n2)s1` [Compound 220, 5-[5-chloro-4-[[5-(2-thienyl)-1H-pyrazol-3-yl]amino]-pyrimidin-2-yl]thiophene-2-sulfonamide], the Ki was greater than 4000 nM.
